One molecule from patent publication US11307205B2, “Non-radioactive cytotoxicity assays” (University of Southern California, priority 2016, dated 2022) can be followed below.

Format in all cases: cell-based
The subject of experiment [1] is K562 cells. Kind of experiment: Matador assay, death of K562 reporter cells induced by Digitonin or lytic reagent.
Experiment [2] concerns 293FT cells. Kind of experiment: Matador assay, Digitonin-induced death of transiently transfected 293FT cells. The method, then:
The 293FT cells were transfected in a 24-well plate with various expression plasmids (500 ng/well) using calcium phosphate. Approximately, 18 hours post-transfection, the cells were either left untreated or treated with 30 μg/ml Digitonin to induce cell death, followed by the detection of luminescence as described under luciferase assays.
293FT cells were transfected with pLenti-CBGRluc construct in a […]. 72 hours post-transfection, cells were trypsinized and plated in 6-well plates. For induction of cell death, cells in some wells were treated with Digitonin (50 μg/mL final concentration). CBGRluc activity was determined by adding assay buffer (1 mM D-Luciferin, 25 mM glycylclycine, 15 mM potassium phosphate, 15 mM MgSO4, 4 mM EGTA, 2 mM ATP, and 1 mM DTT) in a well mode. The assay buffer with substrate was added at 1:1 (v/v) ratio.
The MLuc7 cDNA also carried M43L and M110L substitutions. […] The mammalian expression vectors encoding the non-secretory forms of the above luciferase cDNAs were transiently transfected into 293FT cells by calcium phosphate co-precipitation method. […] 6 wells were treated with Digitonin and 6 wells were left untreated. Luciferase activity was measured by addition of coelentrazine containing assay buffer directly to each well.
The indicated luciferase constructs in either retroviral or lentiviral vectors were transiently transfected into 293FT cells by calcium phosphate co-precipitation method. Approximately 18 hours post-transfection, cells were treated with Digitonin for 90 minutes or left untreated (control). […] Essentially a similar procedure was used with a construct encoding Lucia-Luc.
293FT cells were transiently transfected with the above construct or left untransfected. Approximately 18 hours post-transfection, cells were treated for 90 min with Digitonin (final concentration 30 μg/ml) or left untreated. After the 90 minute incubation, 200 μl supernatant was collected from each well in a 1.5 ml tubes. The tubes were spun down at 1500 RPM for 5 minutes.
We next examined if the Matador cytotoxicity assay developed by us is limited to only luciferase proteins or can be adapted to any other protein that is not endogenously expressed by the target cells. For this purpose, we transiently transfected 293FT cells by calcium phosphate co-precipitation method with an expression plasmid encoding enhanced green fluorescent protein (GFP) or HA-epitope tagged-mCherry. Approximately 24 post-transfection, the transfected cells were either left untreated or treated with Digitonin to induce cell death. The cells were collected in tubes and centrifuged at 2,000 rpm for 5 min. Cell supernatant was collected in a new set of tubes and cell pellet were washed with cold phosphate-buffered saline twice and lysed in lysis buffer containing 20 mM Tris-HCl, pH 8.0, 500 mM NaCl, 0.25% Triton X-100, 1 mM EDTA, 10 mM β-glycophosphate, 10 mMNaF, 1 mM DTT, 1× protease inhibitor mixture (Roche Molecular Biochemicals) at 4° C. for 30 min. After incubation, the mixture was pippetted five or six times to disperse the cells followed by centrifugation at 14,000 rpm at 4° C. for 10 min. The cell lysates were collected as whole cell extracts, and protein concentration was determined by using Bio-Rad protein assay reagent. 30 μl of cell supernatant or 30 μg of whole cell extracts were heated in the presence of SDS-PAGE sample buffer and loaded on 10% SDS-PAGE gel followed by transferring to nitrocellulose membranes. These membranes were incubated with primary antibodies against specified proteins in Tris-buffered-saline with Tween 20 followed by incubation with secondary antibody (IRDye 800CW conjugates of goat anti-rabbit IgG; Li-Cor) and development with Odyssey Infrared Imaging System CLx (Li-Cor Biosciences). The secondary antibody was used at a 1:10,000 dilution.

In experiment [3] the test system is primary leukemia blast cells (Chrt3). Kind of experiment: Matador assay on primary leukemia blast cells expressing GLuc. Particulars: two additional primary leukemia samples; Digitonin; present tense.
Description: To examine if this assay can be also used to measure death of primary cells, leukemic blasts were isolated from a de-identified leukemia patient using Ficoll-Hypaque gradient centrifugation and then transduced with pLenti-EF1a-Pac-T2A-Gluc-B07 (SEQ ID NO: 94) lentiviral vector to generate primary leukemia blast cells (Chrt3) expressing the non-secretory form of GLuc cDNA. Briefly, 1 million primary leukemic blasts were cultured in XVIVO medium in a 6-well plate in the presence of GLuc lentiviral supernatant and polybrene (5 μg/ml) and centrifuged at 2,800 rpm at 32° C. for 2 hours followed by incubation of cells at 37° C. for 24 hours in XVIVO medium. To measure the killing of Chrt3-GLuc cells, the transduced cells were plated at a density of 20,000 cells per well in 30 μl of medium in triplicate in a white 384 well plate and co-cultured with the effector cells for 4 hours at an E:T ratio of 0.125:1. Cell death was assayed by the single-step homogenous GLuc assay by injecting 0.5×CTZ assay buffer in well mode. […] Two additional primary leukemia samples are infected with GLuc encoding lentiviral vector and cell death is induced by treatment with Digitonin.
In experiment [4] the test system is Nalm6 cells. As to the kind of experiment: Dual reporter Matador assay, Digitonin-induced death of Nalm6 cells. Particulars: Nalm6 cells expressing both GLuc and FfLuc; Digitonin 30 μg/ml, 90 minutes. The method, then: Briefly, 20000 cells in 20 μl media were plated in each well of a 384 well plate followed by addition of 20 μl of Digitonin (final concentration 30 μg/ml) or media alone (20 μl) and incubated for 90 minutes.

As for `C[C@@H]1CC[C@@]2(OC1)O[C@H]1[C@@H](O)[C@H]3[C@@H]4CC[C@H]5C[C@@H](O[C@@H]6O[C@H](CO)[C@H](O[C@@H]7O[C@H](CO)[C@@H](O)[C@H](O[C@@H]8OC[C@@H](O)[C@H](O)[C@H]8O)[C@H]7O[C@@H]7O[C@H](CO)[C@H](O)[C@H](O[C@@H]8O[C@H](CO)[C@@H](O)[C@H](O)[C@H]8O)[C@H]7O)[C@H](O)[C@H]6O)[C@H](O)C[C@]5(C)[C@H]4CC[C@]3(C)[C@H]1[C@@H]2C` [Digitonin], the MLuc7 activity entry in experiment [1] (K562-MLuc7 (additional example), Digitonin 30 μg/ml, 1 cell/well to 10K cells/well) is “increase in MLuc7 activity”; in experiment [1] (K562-MLuc7, Digitonin 1 hour, 1 cell/well to 400K cells/well), “increase in MLuc7 activity”. Also, the “NLuc luminescence in the supernatant” value in experiment [1] (K562-NLuc, Digitonin 1 h, all three assay buffers) is “increase in luminescence”. The TLuc activity result in experiment [1] (K562 cells expressing TurboLuc16, Digitonin 90 min) is recorded as “increase in TLuc activity”. The “FfLuc and GLuc activities” value in experiment [1] (K562 cells expressing both GLuc and FfLuc, Digitonin 30 μg/ml, 90 minutes) was “increase in both FfLuc and GLuc activities”; in experiment [4], “increase in both FfLuc and GLuc activities”. For the same molecule, the LucPPe-146-1H2 activity entry in experiment [1] (K562 cells stably expressing LucPPe-146-1H2, Digitonin 30 μg/ml) is given as “increase in LucPPe-146-1H2 activity”. Moreover, in experiment [1] (K562 cells stably expressing NLuc, Digitonin 30 μg/ml, 1 hour), the NLuc activity result is on record as “increase in NLuc activity”. Further, the “Renilla Luc activity” value in experiment [1] (K562 cells stably expressing Renilla Luc, Digitonin 2 hours) is on record as “increase in Renilla Luc activity”. Moreover, the “Luc49-7C6A, Luc78-0B10, Luc133-IB2 and LucPpL-81-6G1 activities” value in experiment [1] (K562 cells stably expressing these luciferases, Digitonin 30 μg/ml, example in present tense) was “increase in Luc49-7C6A, Luc78-0B10, Luc133-IB2 and LucPpL-81-6G1 activities”. Further, the “LucPPe-146-1H2 and NLuc luminescence” value in experiment [1] (K562 co-expressing both luciferases, Digitonin 30 μg/ml, 90 minutes, Dual-Luciferase Reporter Assay System) is “increase in both LucPPe-146-1H2 and NLuc luminescence”. Further, the “LucPPe-146-1H2 and NLuc activities” value in experiment [1] (K562 co-expressing both luciferases, Digitonin, measured in different wells with D-luciferin and CTZ assay buffers) is “increase in both LucPPe-146-1H2 and NLuc activities”. Besides, the luciferase activity result in experiment [2] (FfLuc construct, Digitonin 30 μg/ml, 90 min, supernatant) is “increase in luciferase activity”; in experiment [2] (transfected with HtLuc, LoLuc, MLuc7, Digitonin), “increase in luciferase activity”. Further, in experiment [2] (GFP and mCherry-HA transfected, Digitonin), the “fluorescence in cell supernatant” value was “significant increase in fluorescence”. The “GFP release in the supernatant fraction (Western blotting)” value in experiment [2] (GFP transfected, Digitonin) is “increase in GFP release in the supernatant fraction”. Further, the “mCherry release in the supernatant fraction (Western blotting)” value in experiment [2] (HA-mCherry transfected, Digitonin) is “increase in mCherry release in the supernatant fraction”. In addition, in experiment [2] (LucPPe-146-1H2 transient transfection, Digitonin), the LucPPe luciferase activity result is “increase in LucPPe luciferase activity”. The Luc activity result in experiment [2] (MYR-GGS-GLuc construct, Digitonin 30 μg/ml, 90 min, supernatant) is recorded as “increase in Luc activity”. The “increase in alkaline phosphatase activity in the cell supernatants” value in experiment [2] (constructs encoding human embryonal alkaline phosphatase lacking the secretory signal, Digitonin 90 min) is reported as “greater than 3 fold”. For the same molecule, in experiment [2] (empty vector or plasmid encoding the secretory form of human embryonal alkaline phosphatase, Digitonin 90 min), the alkaline phosphatase activity entry is given as “little or no increase”. In experiment [2] (pLenti-CBGRluc transfected, Digitonin 50 μg/mL), the CBGRluc activity entry is listed as “increase in CBGRluc activity”. For the same molecule, the “luciferase activity in the cell-free supernatants” value in experiment [2] (transfected with GLuc, NLuc, MLuc7, TLuc16, Paluc1, Htluc1, Loluc, RLuc, Lucia-Luc, Digitonin 90 minutes) is “increase in luciferase activity”. Further, the GLuc activity result in experiment [3] is given as “increase in GLuc activity”.
